Reference: patent US20230102554A1 (GB002, INC., priority 2019, published 2023)

Experiments:
[1] = target: T1, Human PDGFRα, cytoplasmic domain (GST-PDGFRα) (Homo sapiens, UniProt P16234); test: Human PDGFRα biochemical inhibition assay (off-chip Mobility Shift Assay)
T1 construct: made in house

[2] = target: T2, Human PDGFRβ, cytoplasmic domain (GST-PDGFRβ) (Homo sapiens, UniProt P09619); test: Human PDGFRβ biochemical inhibition assay (off-chip Mobility Shift Assay)
T2 construct: made in house
T2 sequence (P09619 with tags, fused parts or gaps): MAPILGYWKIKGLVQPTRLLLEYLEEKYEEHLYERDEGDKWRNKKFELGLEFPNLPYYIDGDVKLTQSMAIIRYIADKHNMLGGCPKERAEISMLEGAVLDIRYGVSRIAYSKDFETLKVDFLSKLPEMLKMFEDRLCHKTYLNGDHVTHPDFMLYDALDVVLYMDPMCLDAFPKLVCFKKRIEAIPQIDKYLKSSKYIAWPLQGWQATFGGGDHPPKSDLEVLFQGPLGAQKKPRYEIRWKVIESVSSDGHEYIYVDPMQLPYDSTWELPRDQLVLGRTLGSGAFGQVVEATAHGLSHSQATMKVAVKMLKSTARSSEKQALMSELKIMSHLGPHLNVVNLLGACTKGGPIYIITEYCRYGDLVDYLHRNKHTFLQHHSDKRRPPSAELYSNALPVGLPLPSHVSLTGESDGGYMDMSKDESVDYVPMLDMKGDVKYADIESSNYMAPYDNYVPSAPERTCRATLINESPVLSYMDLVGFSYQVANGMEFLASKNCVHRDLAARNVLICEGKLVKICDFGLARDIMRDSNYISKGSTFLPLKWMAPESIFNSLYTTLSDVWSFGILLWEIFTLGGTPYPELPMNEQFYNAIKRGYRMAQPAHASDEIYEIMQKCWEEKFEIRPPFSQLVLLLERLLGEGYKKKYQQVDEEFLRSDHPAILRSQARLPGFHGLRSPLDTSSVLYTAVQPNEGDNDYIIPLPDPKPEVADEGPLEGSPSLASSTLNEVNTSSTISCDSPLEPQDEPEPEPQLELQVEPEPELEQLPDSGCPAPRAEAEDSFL
How it was run: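 GST-tagged cytoplasmic domain (aa 557-1106) from baculovirus was incubated 1 h at room temperature with compound, CSKtide, ATP at Km and Mg²⁺ in HEPES buffer, pH 7.5. Phosphorylated and unphosphorylated peptide were separated by off-chip mobility shift, and the product ratio P/(P+S) gave percent inhibition.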

T1 sequence (P16234 550-1089 T674I): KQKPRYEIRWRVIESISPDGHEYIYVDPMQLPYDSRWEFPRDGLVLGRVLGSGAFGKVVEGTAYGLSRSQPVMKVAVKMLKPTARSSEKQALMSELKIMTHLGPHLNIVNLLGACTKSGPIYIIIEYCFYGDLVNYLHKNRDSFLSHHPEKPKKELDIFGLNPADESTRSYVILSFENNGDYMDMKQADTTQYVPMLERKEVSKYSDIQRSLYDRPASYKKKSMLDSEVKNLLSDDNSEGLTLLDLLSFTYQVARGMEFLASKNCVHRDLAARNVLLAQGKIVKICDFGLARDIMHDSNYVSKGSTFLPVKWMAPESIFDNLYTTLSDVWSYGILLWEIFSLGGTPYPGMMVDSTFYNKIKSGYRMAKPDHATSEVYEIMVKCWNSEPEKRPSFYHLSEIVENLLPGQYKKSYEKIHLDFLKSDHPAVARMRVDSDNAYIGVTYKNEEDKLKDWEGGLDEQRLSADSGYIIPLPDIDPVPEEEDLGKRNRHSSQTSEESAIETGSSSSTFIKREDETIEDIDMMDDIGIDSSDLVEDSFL

SMILES	IC50 [1] [nM]	IC50 [2] [nM]
CCn1cc2ncc(N[C@@H](C)c3cccc(NC(=O)Cc4ccccn4)c3)nc2n1 [Compound 645, (S)-N-(3-(1-((2-ethyl-2H-pyrazolo[3,4-b]pyrazin-6-yl)amino)ethyl)phenyl)-2-(pyridin-2-yl)acetamide]	300 to 1000	≥ 1000
CCNc1ccc(C(=O)Nc2cccc([C@H](C)Nc3cnc4cn(CC)nc4n3)c2)cn1 [Compound 394, (S)-N-(3-(1-((2-ethyl-2H-pyrazolo[3,4-b]pyrazin-6-yl)amino)ethyl)phenyl)-6-(ethylamino)nicotinamide]	< 300	≥ 1000
CCn1cc2ncc(N[C@@H](C)c3cccc(NC(=O)c4cnc(C5CC5)s4)c3)nc2n1 [Compound 296, (S)-2-cyclopropyl-N-(3-(1-((2-ethyl-2H-pyrazolo[3,4-b]pyrazin-6-yl)amino)ethyl)phenyl)thiazole-5-carboxamide]	< 300	< 300
CCn1cc2ncc(N[C@@H](C)c3cc(NC(=O)c4ccc(OC5CCN(C)CC5)c(Cl)c4)ccc3F)nc2n1 [Compound 430, (S)-3-chloro-N-(3-(1-((2-ethyl-2H-pyrazolo[3,4-b]pyrazin-6-yl)amino)ethyl)-4-fluorophenyl)-4-((1-methylpiperidin-4-yl)oxy)benzamide]	< 300	< 300
CCn1ncc2ncc(N[C@@H](C)c3cccc(NC(=O)c4cncc(C)c4)c3)cc21 [Compound 7]	< 300	≥ 1000
C[C@H](Nc1cnc2[nH]cc(-c3cnn(C)c3)c2n1)c1cccc(NC(=O)c2cnn(C3CC3)c2)c1 [Compound 581, (S)-1-cyclopropyl-N-(3-(1-((7-(1-methyl-1H-pyrazol-4-yl)-5H-pyrrolo[2,3-b]pyrazin-2-yl)amino)ethyl)phenyl)-1H-pyrazole-4-carboxamide]	< 300	< 300
Cc1cncc(NC(=O)Nc2cccc([C@H](C)Nc3cnc4cnn(C)c4n3)c2)c1 [Compound 731, (S)-1-(3-(1-((1-methyl-1H-pyrazolo[3,4-b]pyrazin-6-yl)amino)ethyl)phenyl)-3-(5-methylpyridin-3-yl)urea]	< 300	< 300
CCn1cc2ncc(N[C@@H](C)c3cccc(NC(=O)c4ccc(Cl)c(F)c4)c3)nc2n1 [Compound 347, (S)-4-chloro-N-(3-(1-((2-ethyl-2H-pyrazolo[3,4-b]pyrazin-6-yl)amino)ethyl)phenyl)-3-fluorobenzamide]	< 300	< 300
CCn1cc2ncc(N[C@@H](C)c3cccc(NC(=O)c4ccc(Cl)s4)c3)nc2n1 [Compound 293, (S)-5-chloro-N-(3-(1-((2-ethyl-2H-pyrazolo[3,4-b]pyrazin-6-yl)amino)ethyl)phenyl)thiophene-2-carboxamide]	< 300	< 300
CCn1cc2ncc(N[C@@H](C)c3cc(NC(=O)c4cc(F)c(CN5CCN(C)CC5)c(Cl)c4)ccc3C)nc2n1 [Compound 518, (S)-3-chloro-N-(3-(1-((2-ethyl-2H-pyrazolo[3,4-b]pyrazin-6-yl)amino)ethyl)-4-methylphenyl)-5-fluoro-4-((4-methylpiperazin-1-yl)methyl)benzamide]	< 300	< 300
CCn1cc2ncc(N[C@@H](C)c3cc(NC(=O)Cc4cnc(C5CC5)c(F)c4)ccc3C)nc2n1 [Compound 708, (S)-2-(6-cyclopropyl-5-fluoropyridin-3-yl)-N-(3-(1-((2-ethyl-2H-pyrazolo[3,4-b]pyrazin-6-yl)amino)ethyl)-4-methylphenyl)acetamide]	< 300	300 to 1000
CCn1cc2ncc(N[C@@H](C)c3cccc(NC(=O)Cc4ccc(C5CC5)cn4)c3)nc2n1 [Compound 682, (S)-2-(5-cyclopropylpyridin-2-yl)-N-(3-(1-((2-ethyl-2H-pyrazolo[3,4-b]pyrazin-6-yl)amino)ethyl)phenyl)acetamide]	300 to 1000	≥ 1000
CCn1cc2ncc(N[C@@H](C)c3cccc(NC(=O)Cc4cc(C)c(Cl)cn4)c3)nc2n1 [Compound 695, (S)-2-(5-chloro-4-methylpyridin-2-yl)-N-(3-(1-((2-ethyl-2H-pyrazolo[3,4-b]pyrazin-6-yl)amino)ethyl)phenyl)acetamide]	< 300	300 to 1000
C[C@H](Nc1cnc2cnn(C)c2n1)c1cccc(NC(=O)c2ccc(C3CCC3)nc2)c1 [Compound 123, (S)-6-cyclobutyl-N-(3-(1-((1-methyl-1H-pyrazolo[3,4-b]pyrazin-6-yl)amino)ethyl)phenyl)nicotinamide]	< 300	< 300
C[C@H](Nc1cnc2cnn(C)c2n1)c1cccc(NC(=O)c2cncc(C3COC3)c2)c1 [Compound 114, (S)-N-(3-(1-((1-methyl-1H-pyrazolo[3,4-b]pyrazin-6-yl)amino)ethyl)phenyl)-5-(oxetan-3-yl)nicotinamide]	< 300	< 300
COC(=O)c1ccc(C(=O)Nc2cccc([C@H](C)Nc3cnc4cnn(C)c4n3)c2)cc1C [Compound 199, methyl (S)-2-methyl-4-((3-(1-((1-methyl-1H-pyrazolo[3,4-b]pyrazin-6-yl)amino)ethyl)phenyl)carbamoyl)benzoate]	< 300	< 300

Other lines, results leading:

IC50 [1] [nM]	IC50 [2] [nM]	SMILES
< 300	< 300	C[C@H](Nc1cnc2cnn(C)c2n1)c1cccc(NC(=O)c2cnc3c(c2)OCCO3)c1 [Compound 69, (S)-N-(3-(1-((1-methyl-1H-pyrazolo[3,4-b]pyrazin-6-yl)amino)ethyl)phenyl)-2,3-dihydro-[1,4]dioxino[2,3-b] pyridine-7-carboxamide]
< 300	< 300	Cc1cncc(C(=O)Nc2cccc([C@H](C)Nc3cnc4[nH]c(=O)n(C)c4n3)c2)c1 [Compound 12, (S)-5-methyl-N-(3-(1-((3-methyl-2-oxo-2,3-dihydro-1H-imidazo[4,5-b]pyrazin-5-yl)amino)ethyl)phenyl)nicotinamide]
< 300	< 300	C[C@H](Nc1cnc2cnn(C)c2n1)c1cc(NC(=O)c2ccc(C3CC3)nc2)ccc1F [Compound 201, (S)-6-cyclopropyl-N-(4-fluoro-3-(1-((1-methyl-1H-pyrazolo[3,4-b]pyrazin-6-yl)amino)ethyl)phenyl) nicotinamide]
< 300	< 300	C[C@H](Nc1cnc2cnn(C)c2n1)c1cccc(NC(=O)c2ccc(C(F)F)s2)c1 [Compound 134, (S)-5-(difluoromethyl)-N-(3-(1-((1-methyl-1H-pyrazolo[3,4-b]pyrazin-6-yl)amino)ethyl)phenyl)thiophene-2-carboxamide]
< 300	< 300	C[C@H](Nc1cnc2cnn(C)c2n1)c1cccc(NC(=O)c2cnc3ccsc3c2)c1 [Compound 49, (S)-N-(3-(1-((1-methyl-1H-pyrazolo[3,4-b]pyrazin-6-yl)amino)ethyl)phenyl) thieno[3,2-b]pyridinc-6-carboxamide]
< 300	≥ 1000	CCn1cc2ncc(N[C@@H](C)c3cc(NC(=O)Cc4ccc(C)nc4)ccc3F)nc2n1 [Compound 651, (S)-N-(3-(1-((2-ethyl-2H-pyrazolo[3,4-b]pyrazin-6-yl)amino)ethyl)-4-fluorophenyl)-2-(6-methylpyridin-3-yl) acetamide]
< 300	< 300	C[C@H](Nc1cnc2cnn(C)c2n1)c1cccc(NC(=O)c2ccc3ccn(C)c3c2)c1 [Compound 50, (S)-1-methyl-N-(3-(1-((1-methyl-1H-pyrazolo[3,4-b]pyrazin-6-yl)amino)ethyl)phenyl)-1H-indole-6-carboxamide]
< 300	< 300	C[C@H](Nc1cnc2cc(C3CC3)sc2n1)c1cc(NC(=O)c2ccc(C(F)(F)F)nc2)ccc1F [Compound 616, (S)-N-(3-(1-((6-cyclopropylthieno[2,3-b]pyrazin-3-yl)amino)ethyl)-4-fluorophenyl)-6-(trifluoromethyl)nicotinamide]
< 300	< 300	CCn1cc2ncc(N[C@@H](C)c3cc(NC(=O)Cc4ccc(Cl)c(C)n4)ccc3F)nc2n1 [Compound 668, (S)-2-(5-chloro-6-methylpyridin-2-yl)-N-(3-(1-((2-ethyl-2H-pyrazolo[3,4-b]pyrazin-6-yl)amino)ethyl)-4-fluorophenyl)acetamide]
< 300	< 300	Cc1cc(C(=O)Nc2cccc([C@H](C)Nc3cnc4cnn(C)c4n3)c2)ccc1CN1CCN(C)CC1 [Compound 208, (S)-3-methyl-N-(3-(1-((1-methyl-1H-pyrazolo[3,4-b]pyrazin-6-yl)amino)ethyl)phenyl)-4-((4-methylpiperazin-1-yl)methyl)benzamide]
< 300	< 300	CC(C)c1cc(C(=O)Nc2cccc([C@H](C)Nc3cnc4cnn(C)c4n3)c2)on1 [Compound 145, (S)-3-isopropyl-N-(3-(1-((1-methyl-1H-pyrazolo[3,4-b]pyrazin-6-yl)amino)ethyl)phenyl)isoxazole-5-carboxamide]
< 300	≥ 1000	CCn1cc2ncc(N[C@@H](C)c3cc(NC(=O)Cc4cnc(C5CC5)c(F)c4)ccc3F)nc2n1 [Compound 691, (S)-2-(6-cyclopropyl-5-fluoropyridin-3-yl)-N-(3-(1-((2-ethyl-2H-pyrazolo[3,4-b]pyrazin-6-yl)amino)ethyl)-4-fluorophenyl)acetamide]
< 300	< 300	CCn1cc2ncc(N[C@@H](C)c3cccc(NC(=O)c4ccc(CN5CCCC5)c(C)c4)c3)nc2n1 [Compound 404, (S)-N-(3-(1-((2-ethyl-2H-pyrazolo[3,4-b]pyrazin-6-yl)amino)ethyl)phenyl)-3-methyl-4-(pyrrolidin-1-ylmethyl) benzamide]
< 300	≥ 1000	CCn1cc2ncc(N[C@@H](C)c3cc(NC(=O)Cc4ccc(C5CC5)cn4)ccc3F)nc2n1 [Compound 655, (S)-2-(5-cyclopropylpyridin-2-yl)-N-(3-(1-((2-ethyl-2H-pyrazolo[3,4-b]pyrazin-6-yl)amino)ethyl)-4-fluorophenyl) acetamide]
